# Measured values taken from US20020022586A1, “Method for treating a patient with neoplasia by treatment with a pyrimidine analog” (priority 1998, published 2002).
# Like-named read-outs stand apart in the source and are kept apart here.
# Columns and labels:
# HT-29 cells [1] = test: HT-29 tumor cell growth inhibition, SRB assay; format: cell-based, human; set-up: Growth Inhibition: key to the marks not given beside the values; settings: for Growth inhibitory activity, % Inhibition at 100 μM / inhibition at 100 µM: 100 μM single dose; for IC50 / inhibition at 100 µM: Homo sapiens; for IC50: SRB assay; for inhibition at 100 µM: HT-29, read-out: Growth inhibitory activity, % Inhibition at 100 μM
# COX = COX inhibition; format: biochemical
# cGMP-PDE = system: T1, cGMP-PDE; test: cGMP-PDE inhibition assay, enzyme from HT-29 tumor cells; format: biochemical, human; settings: 100 μM
# T1 construct: other: 10 μM; other: 100 μM; other: enzyme from HT-29 cells; other: 20 μM
# PDE peak A (PDE5) = target: T2, PDE peak A (PDE5) (Homo sapiens, UniProt O76074); test: cGMP hydrolysis by PDE peak A isolated from SW-480 cells; format: biochemical; settings: cGMP hydrolysis, 0.25 μM 3H-cGMP
# T2 construct: SW-480 cells are collected and homogenized; endogenous in cells; host or cells: SW-480 human colon adenocarcinoma cells; supernatant of homogenate fractionated on DEAE-Trisacryl M
# [2] = system: PDE peak B (novel cGMP-specific PDE); test: cGMP hydrolysis by PDE peak B isolated from SW-480 cells; format: biochemical, human; settings: 0.25 μM 3H-cGMP
# HT-29 cells [3] = test: Apoptosis by DNA fragmentation assay in HT-29 cells; format: cell-based, human
# HT-29 cells [4] = test: Apoptosis and necrosis by morphology (acridine orange/ethidium bromide) in HT-29 cells; format: cell-based, human; settings: HT-29, 6 days, morphology
# From the text: Following treatment with a test compound, cultures can be assayed for apoptosis and necrosis by fluorescent microscopy following labeling with acridine orange and ethidium bromide. The method for measuring apoptotic cell number has previously been described by Duke & Cohen, “Morphological And Biochemical Assays Of Apoptosis,” Current Protocols In Immunology, Coligan et al., eds., 3.17.1-3.17.16 (1992, which is incorporated herein by reference).
# For example, floating and attached cells can be collected, and aliquots of cells can be centrifuged. The cell pellet can then be resuspended in media and a dye mixture containing acridine orange and ethidium bromide. The mixture can then be examined microscopically for morphological features of apoptosis.
# Reference compounds and test compounds were analyzed for their cGMP-specific PDE inhibitory activity in accordance with the protocols for the assay, supra. […] Apoptotic and necrotic cell death was determined as previously described (Duke and Cohen, In: Current Protocols in Immunology, 3.17.1-3.17.16, New York, John Wiley and Sons, 1992). […] All data were collected from the same experiment.
# The apoptosis inducing activity for a series of phosphodiesterase inhibitors was determined. HT-29 cell were treated for 6 days with various inhibitors of phosphodiesterase. Apoptosis and necrosis were determined morphologically after acridine orange and ethidium bromide labeling in accordance with the assay described, supra.
# HT-29 cells [5] = test: cAMP levels in cultured HT-29 cells by radioimmunoassay; format: cell-based, human; settings: HT-29 cells treated 30 minutes
# From the text: It has been observed that a compound which is useful in the practice of this invention (i.e., one that selectively induces apoptosis in neoplastic cells, but not substantially in normal cells) follows a time course consistent with cGMP-specific PDE inhibition. […] The intracellular targets of these drug actions are being studied further, but current data support the concept that the initial rise in cGMP content and the subsequent fall in cAMP content precede apoptosis in neoplastic cells exposed to test compounds useful in this invention. To determine the cyclic AMP content in cell extracts, radioimmunoassay techniques similar to those described above for cGMP are used.
# [6] = system: premalignant lesions in mouse mammary gland organ culture; test: Mammary gland organ culture model; format: cell-based; settings: for inhibition of premalignant lesions: mammary gland organ culture; for Mammary Gland Organ Culture: activity profile; for mammary gland organ culture: key: −: Not active; +: Slightly active; ++: Moderately active; +++: Strongly active; ++++: Highly active
# Experimental: For example, female BALB/c mice can be treated with a combination of estradiol and progesterone daily, in order to prime the glands to be responsive to hormones in vitro. The animals are sacrificed and thoracic mammary glands are excised aseptically and incubated for ten days in growth media supplemented with insulin, prolactin, hydrocortisone, and aldosterone. DMBA (7,12-dimethylbenz(a)anthracene) is added to medium to induce the formation of premalignant lesions. Fully developed glands are then deprived of prolactin, hydrocortisone, and aldosterone, resulting in the regression of the glands but not the premalignant lesions.
# The test compound is dissolved in DMSO and added to the culture media for the duration of the culture period. At the end of the culture period, the glands are fixed in 10% formalin, stained with alum carmine, and mounted on glass slides. The extent of the area occupied by the mammary lesions can be quantitated by projecting an image of the gland onto a digitation pad. The area covered by the gland is traced on the pad and considered as 100% of the area. The space covered by each of the unregressed structures is also outlined on the digitization pad and quantitated by the computer.
# The incidence of forming mammary lesions is the ratio of the glands with mammary lesions to […]. The incidence of mammary lesions in test compound treated glands is compared with that of the untreated glands.
# Mammary gland organ culture experiments were performed as previously described (Mehta and Moon, Cancer Research, 46: 5832-5835, 1986). […] The data support the hypothesis that cyclooxygenase inhibition is not necessary for the anti-neoplastic properties of desired compounds.
# HT-29, Colon = test: Growth inhibition of various cell lines (Table 5); format: cell-based; settings: Homo sapiens
# A-427, Lung = test: Growth inhibition of various cell lines (Table 5); format: cell-based; settings: Homo sapiens
# Experimental: (§1) To show the effectiveness of cGMP-specific PDE inhibition on various forms of neoplasia, compounds were tested on numerous cell lines. […] The IC50 values were determined by the SRB assay. […] Therefore, compounds selected for cGMP-specific PDE inhibition in combination with a pyrimidine analog should be useful for treating neoplasia, in particular breast, colorectal and pancreatic cancers.
# [7] = system: Human Prostate Carcinoma PC3; test: Growth inhibition of various cell lines (Table 5); format: cell-based
# Experimental: as §1
# [8] = Side effects of exisulind on administration; format: in vivo
# From the text: This effect is reversible, and liver enzymes return to normal levels when the administered dose of exisulind returns to the traditionally recommended level or when treatment is discontinued. The most serious side effect of pyrimidine analogs, on the other hand, is bone marrow suppression.
# DU-145 = test: Growth inhibition of various cell lines (Table 5); format: cell-based; settings: Homo sapiens
# Experimental: as §1
# HCT-15 = test: Growth inhibition of various cell lines (Table 5); format: cell-based; settings: Homo sapiens
# Experimental: as §1
# MDA-MB-435 = test: Growth inhibition of various cell lines (Table 5); format: cell-based; settings: Homo sapiens
# Experimental: as §1
# [9] = 144 h, HT-29, 6 days, PDE inhibitors, read-out: Growth inhibition (IC50)
compound,measurement,setting,value
"CC(=O)NC(CSC12CC(=O)OC1(C)/C(=C/c1ccc(S(C)(=O)=O)cc1)c1ccc(F)cc12)C(=O)O (racemic) [D, rac-(E)-1-(butan-1′,4′-olido)-[3′,4′:1,2]-6-fluoro-2-methyl-3-(p-methylsulfonylbenzylidene)-1S-indanyl-N-acetylcysteine]","Growth inhibitory activity, % Inhibition at 100 μM",HT-29 cells [1],78%
same,COX Inhibition,COX; activity profile,−
"O=C([O-])C1CCN(c2nc(NCc3ccc4c(c3)OCO4)c3cc(Cl)ccc3n2)CC1.[Na+] [Compound E4021, reference compound]","Growth inhibitory activity, % Inhibition at 100 μM",HT-29 cells [1],<50%
"Clc1cccc(Nc2nnc(-c3ccccc3)c3ccccc23)c1 [MY5445, reference compound]",COX Inhibition,COX; activity profile,++++
"CC1=C(CC(=O)O)c2cc(F)ccc2/C1=C\c1ccc(Cl)cc1 [C, (Z)-5-Fluoro-2-methyl-1-(p-chlorobenzylidene)-3-acetic acid]",cGMP PDE % Inhibition at 100 μM,cGMP-PDE,<25%
same,"Growth inhibitory activity, % Inhibition at 100 μM",HT-29 cells [1],80%
CCOC(=O)C1=C[C@]2(CC)CCCN3CCc4c(n1c1ccccc41)[C@@H]32 [Vinpocetine],IC50,PDE peak A (PDE5),> 100000 nM
same,IC50,[2],> 100000 nM
"CCCCCC[C@@H]([C@@H](C)O)n1cnc2c(N)ncnc21 (racemic) [EHNA, reference compound]",IC50,[2],3700 nM
same,"Apoptosis inducing activity, Fold induction at 100 μM",HT-29 cells [3],<2.0 fold
Cc1[nH]c(=O)c(C#N)cc1-c1ccncc1 [Milrinone],IC50,HT-29 cells [1]; [9],> 200000 nM
same,% Apoptosis,HT-29 cells [4],18%
same,% Necrosis,HT-29 cells [4],0%
"CC1=C(CC(=O)N(C2CCCCC2)C2CCCCC2)c2cc(F)ccc2/C1=C\c1ccc(S(C)(=O)=O)cc1 [F, (Z)-5-Fluoro-2-methyl-1-(p-methylsulfonylbenzylidene)-3-indenylacetamide, N,N′-dicyclohexyl]",COX Inhibition,COX; activity profile,−
COc1ccc(C2CNC(=O)C2)cc1OC1CCCC1 (centres unmarked) [Rolipram],IC50,[2],> 100000 nM
same,effect on cAMP levels,HT-29 cells [5],increased cAMP levels
CC1=C(CC(=O)O)c2cc(F)ccc2/C1=C/c1ccc([S+](C)[O-])cc1 (centres unmarked) [sulindac sulfoxide],inhibition of premalignant lesions,[6],effectively inhibit the formation of premalignant lesions
"rac-threo-(E)-1-(N,N′-diethylaminoethanethio)-1-(butan-1′,4′-olido)-[3′,4′:1,2′]-6-fluoro-2-methyl-3-(p-methylsulfonylbenzylidene)-indan",cGMP PDE % Inhibition at 100 μM,cGMP-PDE,<25%
same,"Growth inhibitory activity, % Inhibition at 100 μM",HT-29 cells [1],68%
same,"Apoptosis inducing activity, Fold induction at 100 μM",HT-29 cells [3],<2.0 fold
same,Mammary Gland Organ Culture,[6],++
same,COX Inhibition,COX; activity profile,−
"CCCc1nn(C)c2c(=O)[nH]c(-c3cc(S(=O)(=O)N4CCN(C)CC4)ccc3OCC)nc12 [Sildenafil, reference compound]",inhibition at 100 µM,HT-29 cells [1],< 50%
"ribo-(E)-1-Triazolo-[2′,3′:1″,3″]-1-(butan-1′,4′-olido)-[3′,4′:1,2]-6-fluoro-2-methyl-3-(p-methylsulfonylbenzylidene)-indan [G]",COX Inhibition,COX; activity profile,−
"CCCOc1ccccc1-c1nc2nn[nH]c2c(=O)[nH]1 [Zaprinast, reference compound]",IC50,HT-29 cells [1]; [9],> 100000 nM
same,inhibition at 100 µM,HT-29 cells [1],< 50%
"rac-(E)-1-(butan-1′,4′-olido)-[3′,4′:1,2]-6-fluoro-2-methyl-3-(p-methylsulfonylbenzylidene)-1 S-indanyl-glutathione)",COX Inhibition,COX; activity profile,−
"CC1=C(CC(=O)O)c2cc(F)ccc2/C1=C\c1ccc(S(C)(=O)=O)cc1 [Exisulind, (Z)-5-fluoro-2-methyl-1-[[4-(methylsulfonyl)phenyl]methylene]indene-3-yl acetic acid]",IC50,"HT-29, Colon",120 µM
same,IC50,"A-427, Lung",130 µM
same,IC50,[7],82 µM
same,inhibition of premalignant lesions,[6],effectively inhibit the formation of premalignant lesions
same,COX Inhibition,COX; activity profile,−
same,side effects at recommended dose,[8]; 300-400 mg/day,no significant side effects
same,liver enzymes at doses higher than recommended,"[8]; doses higher than the recommended therapeutic levels, reversible",elevated levels of liver enzymes
"COc1cc(/C=C2/C(C)=C(CC(=O)NCc3ccccc3)c3cc(F)ccc32)cc(OC)c1OC [Compound E, (Z)-5-Fluoro-2-methyl-1-(3,4,5-trimethoxybenzylidene)-3-indenylacetamide, N-benzyl]",IC50,PDE peak A (PDE5),380 nM
same,IC50,[2],370 nM
same,cGMP PDE % Inhibition at 100 μM,cGMP-PDE,75%
same,IC50,"HT-29 cells [1]; HT-29, 144 h, six days, read-out: IC50 for growth inhibition of HT-29 cells",40 nM
same,inhibition at 100 µM,HT-29 cells [1],62%
same,Growth Inhibition,HT-29 cells [1]; activity profile,++++
same,IC50,"HT-29, Colon",0.1 µM
same,IC50,DU-145,0.1 µM
same,IC50,HCT-15,0.6 µM
same,IC50,MDA-MB-435,0.04 µM
same,EC50,"HT-29 cells [3]; Homo sapiens, HT-29, 48 hours, DNA fragmentation, read-out: EC50 for apoptosis induction",50 nM
same,Mammary Gland Organ Culture,[6],++++
same,COX Inhibition,COX; 100 μM,did not inhibit COX
same,COX Inhibition,COX; activity profile,−
CC1(C)C(=O)Nc2ccc(C3=NNC(=O)CC3)cc21 [Indolidan],IC50,PDE peak A (PDE5),31000 nM
same,IC50,[2],> 100000 nM
